Laboratory results taken from the NIST ThermoML archive (doi:10.1021/je100757w).

Assay: xn = mol fraction of the nth substance listed
Details: for surface tension liquid-gas: Ring tensiometer; for mass density: 101.3 kPa, Liquid

COCCOCCOC [2,5,8-trioxanonane] + O
Details	mass density [kg/m3]	surface tension liquid-gas [mN/m]
298.15 K, x1 = 0.0047	–	49.27
298.15 K, x1 = 0.0141	–	44.11
298.15 K, x1 = 0.0188	1002.55	–
298.15 K, x1 = 0.0279	–	42.26
298.15 K, x1 = 0.0456	–	39.85
298.15 K, x1 = 0.0543	1006.8	–
298.15 K, x1 = 0.0874	–	35.99
298.15 K, x1 = 0.1184	–	31.62
298.15 K, x1 = 0.1289	1002.43	–
298.15 K, x1 = 0.1582	–	30.69
298.15 K, x1 = 0.1903	994.76	–
298.15 K, x1 = 0.2241	–	30.45
298.15 K, x1 = 0.3191	–	29.9
298.15 K, x1 = 0.3195	978.75	–
298.15 K, x1 = 0.4068	970.55	–
298.15 K, x1 = 0.4283	–	28.69
298.15 K, x1 = 0.4993	963.15	–
298.15 K, x1 = 0.5164	–	28.08
298.15 K, x1 = 0.621	955.66	–
298.15 K, x1 = 0.6493	–	27.9
298.15 K, x1 = 0.7181	950.74	–
298.15 K, x1 = 0.7841	–	26.77
298.15 K, x1 = 0.8097	946.27	–
298.15 K, x1 = 0.8737	–	26.29
298.15 K, x1 = 0.9099	942.33	–
298.15 K, x1 = 0.9228	–	25.69
298.15 K, x1 = 0.9551	940.97	–
298.15 K, x1 = 0.9704	–	25.19
298.15 K, x1 = 1	940.01	24.56
308.15 K, x1 = 0.0014	–	53.47
308.15 K, x1 = 0.0038	–	50.51
308.15 K, x1 = 0.0085	–	47.12
308.15 K, x1 = 0.0142	–	44.72
308.15 K, x1 = 0.0188	998.41	–
308.15 K, x1 = 0.0279	–	41.3
308.15 K, x1 = 0.0457	–	38.99
308.15 K, x1 = 0.0543	1001.43	–
308.15 K, x1 = 0.0875	–	33.65
308.15 K, x1 = 0.12	–	32.57
308.15 K, x1 = 0.1289	996.23	–
308.15 K, x1 = 0.1602	–	31.09
308.15 K, x1 = 0.1903	987.3	–
308.15 K, x1 = 0.2265	–	29.75
308.15 K, x1 = 0.3195	970.44	–
308.15 K, x1 = 0.3217	–	29.19
308.15 K, x1 = 0.4068	961.72	–
308.15 K, x1 = 0.4305	–	28.79
308.15 K, x1 = 0.4993	954.06	–
308.15 K, x1 = 0.5179	–	28.41
308.15 K, x1 = 0.621	945.87	–
308.15 K, x1 = 0.6498	–	28.3
308.15 K, x1 = 0.7181	940.7	–
308.15 K, x1 = 0.7831	–	27.7
308.15 K, x1 = 0.8097	936.34	–
308.15 K, x1 = 0.8744	–	27.58
308.15 K, x1 = 0.9099	932.39	–
308.15 K, x1 = 0.9165	–	27.54
308.15 K, x1 = 0.9551	931.05	–
308.15 K, x1 = 0.9645	–	27.43
308.15 K, x1 = 1	930.03	27.65
318.15 K, x1 = 0.0015	–	55.76
318.15 K, x1 = 0.0038	–	51.77
318.15 K, x1 = 0.0081	–	48.33
318.15 K, x1 = 0.0135	–	45.61
318.15 K, x1 = 0.0188	994.3	–
318.15 K, x1 = 0.0269	–	41.95
318.15 K, x1 = 0.0444	–	39.33
318.15 K, x1 = 0.0543	996.25	–
318.15 K, x1 = 0.0857	–	34.62
318.15 K, x1 = 0.1091	–	28.86
318.15 K, x1 = 0.1289	989.1	–
318.15 K, x1 = 0.156	–	26.65
318.15 K, x1 = 0.1903	979.79	–
318.15 K, x1 = 0.2194	–	25.34
318.15 K, x1 = 0.3174	–	24.45
318.15 K, x1 = 0.3195	961.72	–
318.15 K, x1 = 0.4068	952.75	–
318.15 K, x1 = 0.4248	–	24.26
318.15 K, x1 = 0.4993	944.64	–
318.15 K, x1 = 0.511	–	24.18
318.15 K, x1 = 0.621	936.5	–
318.15 K, x1 = 0.6513	–	23.87
318.15 K, x1 = 0.7181	931.28	–
318.15 K, x1 = 0.7915	–	23.64
318.15 K, x1 = 0.8097	926.76	–
318.15 K, x1 = 0.8844	–	23.5
318.15 K, x1 = 0.9099	922.58	–
318.15 K, x1 = 0.9137	–	23.48
318.15 K, x1 = 0.9547	–	23.46
318.15 K, x1 = 0.9551	921.12	–
318.15 K, x1 = 1	919.99	23.44
